Assay results from patent publication US12383626B2, “Polyoxazoline-drug conjugates with novel pharmacokinetic properties” (priority 2019, dated 2025).
“And” between values parts separate entries of the source, which are not always exact repeats. Equal entries are not always repeated.

Legend:
[1] = Log P (n-octanol/water partitioning)
[2] = male, Sprague Dawley, rat, in vivo, sc, 0.5 mg/kg
Protocol: The plasma levels of drugs released into the blood stream were measured in rodent (Sprague Dawley rats) and non-human primates (Macaca fascicularis, cynomolgus monkeys) following single subcutaneous injections of their respective POZ conjugates with different linkers and drug loading wt %.
Male Sprague Dawley naive rats (age 8-9 weeks, weight 200-250 g) were acquired and placed in rat cages and allowed at least 3 days of acclimatization before the start of the dosing. Each test group contained 3 rats. The POZ conjugates were dissolved 5% dextrose injection and the pH of the solution was adjusted to about 4.0 with 0.1 N hydrochloric acid. Each animal received a single subcutaneous (SC) injection of test article solution equivalent to a dose of 1.5-1.6 mg/kg (based in drug equivalents) and at a volume of 1 mL/kg, and into the left flank using a 23 G BD precision glide needle. […] All blood samples were collected in pre-labeled BD Microtainer tubes containing NaF/disodium EDTA, gently mixed and placed in an ice batch. Plasma was harvested by centrifugation at 3000 rpm for 15 minutes at 4° C. Plasma aliquots of 100 μL were collected in separate tubes containing 10 μL of a solution of 3N HCl acid, gently mixed and immediately frozen and stored at −70° C.
The plasma samples were processed by the ‘protein crash’ method using cold acetonitrile.

Compound: CCCCCCC(C)(C)c1cc(O)c2c(c1)OC(C)(C)[C@H]1CC=C(CO)C[C@H]21 [Dexanabinol, dexanabinol]
- logP [1]: 7.6

Compound: CCCCCc1cc(O)c2c(c1)OC(C)(C)[C@@H]1CCC(C)=C[C@@H]21 [Δ^9-THC, d9-tetrahydrocannabinol]
- Log P ([1]; free drug, listed as THC): 7.2 and 7.0

Compound: C=C(C)[C@@H]1CCC(C)=C[C@H]1c1c(O)cc(CCCCC)cc1O [Cannabidiol, cannabidiol]
- Log Poct/wat ([1]; at 25° C., free drug): 6.1

Compound: CCCN(CCc1cccs1)[C@H]1CCc2c(O)cccc2C1 [Rotigotine, rotigotine]
- time to clear the body [2]: less than 24 hours
- logP (physchem): 4.9
